The subject of one series is TNFR1. In words: Human NP cell CRISPRi: TNFR1 knockdown by qRT-PCR. Format: cell-based. The conditions noted are these: human NP cells. Here is the method: Human NP Cell CRISPRi. […] Quantitative RT-PCR was performed to identify TNFR1 knockdown in these primary human NP cells. Additionally, flow-cytometry was performed to determine transduction efficiency in human NP cells.

Series [1] has as its system TNFR1 signaling (NF-κB activity). In words: NF-κB activity assay in HEK293T cells dosed with TNF-α. The class given is cell-based, human. Particulars: 0.15 ng/mL TNF-α, 24 hours. Here is the method:
Measurement of functional effects of epigenome editing based gene downregulation. NE-κB activity assays. HEK293T cells and hADMSCs were transduced with the earlier mentioned NF-κB reporter vector and analyzed for changes in NF-κB activity in response to dosing cells with TNF-α/IL-1β (RnD systems, ProSpec). To further describe, cells expressing the NF-κB reporter were plated in white 96-well plates (HEK293T cells at 25,000 cells/well and hADMSCs at 5000 cells/well) and allowed to attach overnight. The next day cells were dosed with the appropriate amounts of inflammatory cytokines (0, […], 1, and/or 10 ng/mL of TNF-α/IL-1β) for 24 hours. At 24 hours luminescence corresponding to NF-κB activity was measured in one set of cells using the bright glo assay (Promega) and cell number was measured on another set of cells under the same treatment using the real-time glo assay (Promega). Changes in NF-κB activity were quantified as a fold change in luminescence relative to the no dose control for each cell type, with NF-κB activity normalized to cell number.

As for “5′-AUAAGCGUCCGACACAUGAU-3′ (expressed or natural sequence) [TNFR1 gRNA 4, 82]”, the TNFR1 knockdown is 55% in the series with TNFR1 (with dCas9-KRAB) and “no knockdown” in the series on TNFR1 (with dCas9 alone).

With “5′-CAGUGUUGCAACAGCGGGAC-3′ (expressed or natural sequence) [TNFR1 gRNA 1, 79]”, in series [1], the “NF-κB activity vs no dose control” value is recorded as “no significant increase in NF-κB activity”.

For the origin of these results see patent publication US12410428B2, “RNA-guided transcriptional regulation and methods of using the same for the treatment of back pain” (University of Utah Research Foundation, priority 2018, dated 2025).
